Results on 22 compounds are retold here after patent publication US11655235B2, “Pyrrolidine and piperidine compounds” (YUHAN CORPORATION, priority 2019, dated 2023).

One assay deals with DPP4 (Homo sapiens, UniProt P27487). The experiment in a line: DPP4 inhibition, fluorogenic substrate H-Gly-Pro-AMC. The assay is classed as biochemical. More on the design: purchased R&D Systems. The note with it: recombinant human DPP4.
The target of the next assay is T1, Recombinant human FAP (Homo sapiens, UniProt Q12884).
T1 construct: purchased R&D systems
T1 sequence (Q12884 1-760): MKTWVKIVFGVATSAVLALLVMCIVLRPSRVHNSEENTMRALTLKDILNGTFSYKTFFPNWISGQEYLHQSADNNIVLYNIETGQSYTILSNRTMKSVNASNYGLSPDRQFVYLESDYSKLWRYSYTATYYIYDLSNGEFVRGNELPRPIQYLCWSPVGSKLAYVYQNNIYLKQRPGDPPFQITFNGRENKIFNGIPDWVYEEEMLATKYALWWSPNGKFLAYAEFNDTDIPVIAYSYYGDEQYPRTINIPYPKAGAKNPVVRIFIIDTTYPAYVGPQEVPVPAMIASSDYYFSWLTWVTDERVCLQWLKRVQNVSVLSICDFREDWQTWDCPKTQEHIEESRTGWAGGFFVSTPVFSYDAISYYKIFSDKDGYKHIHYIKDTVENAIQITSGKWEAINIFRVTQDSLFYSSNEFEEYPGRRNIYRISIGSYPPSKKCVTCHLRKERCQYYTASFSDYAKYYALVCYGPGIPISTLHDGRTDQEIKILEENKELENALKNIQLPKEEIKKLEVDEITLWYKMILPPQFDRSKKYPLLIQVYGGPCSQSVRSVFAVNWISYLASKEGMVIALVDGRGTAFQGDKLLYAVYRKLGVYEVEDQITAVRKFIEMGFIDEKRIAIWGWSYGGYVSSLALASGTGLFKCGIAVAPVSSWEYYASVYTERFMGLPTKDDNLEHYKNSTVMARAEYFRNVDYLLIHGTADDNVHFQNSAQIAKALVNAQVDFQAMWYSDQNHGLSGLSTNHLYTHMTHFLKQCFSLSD
The experiment in a line: FAP FRET assay, FGF21-sequence FRET peptide substrate. Format: biochemical. The note with it: FRET peptide with human FGF21 sequence, 6 μM, 37° C. How it is done:
The compounds according to the present technology were evaluated in terms of the inhibitory effect on the activity of dipeptidyl peptidases including FAP by using a substrate producing fluorescent substances upon enzymatic decomposition. The test was conducted at 25° C. to get a final reaction volume of 100 μL in a 96 black well plate. […] Briefly, the test compounds were dissolved in dimethyl sulfoxide (DMSO) at a concentration of 20 mM and then subjected to serial dilution, thereby creating an 8 point curve. As for the control group, a 6 point curve created by serial dilution of Talabostat in the same buffer solution was used. Fluorescence intensity was measured using a microplate reader (Flexstation3, Molecular Devices) under the wavelength condition exciting at 380 nm and reading the emission at 460 nm. The inhibitory effect of the test compounds was measured as a decrease (%) in the signal rate as compared to the control group without any inhibitor. Data was fixed to a logistic model with four variables and IC50 value was calculated using GraphPad Prism program. For the FAP FRET assay, recombinant human FAP (R&D systems) was diluted with 50 mM HEPES (pH 7.2) buffer comprising 150 mM of sodium chloride, 0.1 mg/ml of bovine serum albumin (BSA) and 1 mM EDTA to be 10 ng per final reaction. The test compounds were subjected to serial dilution in a buffer under the condition containing up to 0.1% of DMSO. FRET peptides containing human FGF21 sequence ([…]) conjugated with HyLite Fluor 488 and dark quencher QXL 520 (Anaspec) was used as a substrate. By dissolving in DMSO and then diluting in the same buffer, the substrate was added to be 6 μM per final reaction. All reactions of FRET assay was conducted at 37° C.

Chain of DPP4 (P27487 whole entry): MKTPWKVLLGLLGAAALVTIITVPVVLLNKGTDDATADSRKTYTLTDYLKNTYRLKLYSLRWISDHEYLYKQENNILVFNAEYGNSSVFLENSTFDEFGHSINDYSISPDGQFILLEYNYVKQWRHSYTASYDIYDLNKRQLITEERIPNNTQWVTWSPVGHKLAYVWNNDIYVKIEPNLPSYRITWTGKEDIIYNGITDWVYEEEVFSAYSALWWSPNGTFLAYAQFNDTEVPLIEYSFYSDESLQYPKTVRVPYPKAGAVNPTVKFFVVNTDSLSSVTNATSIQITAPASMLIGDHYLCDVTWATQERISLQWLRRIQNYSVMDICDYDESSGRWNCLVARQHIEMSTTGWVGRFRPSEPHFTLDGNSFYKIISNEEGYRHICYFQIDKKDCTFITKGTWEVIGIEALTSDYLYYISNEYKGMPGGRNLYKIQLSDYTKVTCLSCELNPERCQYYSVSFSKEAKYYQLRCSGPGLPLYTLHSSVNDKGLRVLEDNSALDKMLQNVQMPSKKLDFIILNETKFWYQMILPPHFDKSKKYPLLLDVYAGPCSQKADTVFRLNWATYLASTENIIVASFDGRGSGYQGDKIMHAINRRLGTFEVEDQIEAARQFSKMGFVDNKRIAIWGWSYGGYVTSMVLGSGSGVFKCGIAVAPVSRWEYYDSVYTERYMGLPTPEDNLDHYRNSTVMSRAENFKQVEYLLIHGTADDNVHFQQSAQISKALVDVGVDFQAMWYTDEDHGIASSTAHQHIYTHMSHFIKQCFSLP

For the compound `CN(C)C(=O)c1ccc(NC2CCN(CC(=O)N3C[C@@H](F)C[C@H]3C#N)CC2)c2cccnc12` [Example 391, N,N-dimethyl-5-[[1-[2-oxo-2-[(2S,4S)-2-cyano-4-fluoro-pyrrolidin-1-yl]ethyl]-4-piperidyl]amino]quinoline-8-carboxamide], the IC50 on DPP4 was 3500 nM; at Recombinant human FAP, 27.5 nM.

As for `CC(=O)N1CCc2c(NC3CCN(CC(=O)N4C[C@@H](F)C[C@H]4C#N)CC3)cccc21` [Example 373, (2S,4S)-1-[2-[4-[(1-acetylindolin-4-yl)amino]-1-piperidyl]acetyl]-4-fluoro-pyrrolidine-2-carbonitrile], the IC50 at DPP4 amounted to 2760 nM; at Recombinant human FAP it was 92.4 nM.

Turning to `N#C[C@@H]1C[C@H](F)CN1C(=O)CN1CC[C@@H](Nc2ccnc3ccc(Cl)cc23)C1` [Example 192, (2S,4S)-4-fluoro-1-[2-[(3R)-3-[(6-chloro-4-quinolyl)amino]pyrrolidin-1-yl]acetyl]pyrrolidine-2-carbonitrile], the IC50 was found to be 5560 nM on DPP4 and 15.6 nM on Recombinant human FAP.

For `N#C[C@@H]1CCCN1C(=O)CN1CC[C@@H](Nc2cc(F)c3ncccc3c2)C1` [Example 221, (2S)-1-[2-[(3R)-3-[(8-fluoro-6-quinolyl)amino]pyrrolidin-1-yl]acetyl]pyrrolidine-2-carbonitrile], the figures for the IC50 at DPP4 and at Recombinant human FAP were 11100 nM and 7.5 nM, respectively.

With `CCN(c1cccc2ncccc12)C1CCN(CC(=O)N2C[C@@H](F)C[C@H]2C#N)CC1` [Example 305, (2S,4S)-1-[2-[4-[ethyl(5-quinolyl)amino]-1-piperidyl]acetyl]-4-fluoro-pyrrolidine-2-carbonitrile], the IC50 turned out to be 2080 nM at DPP4 and 50.7 nM on Recombinant human FAP.

Take `N#C[C@@H]1C[C@H](F)CN1C(=O)CN1CCC(Nc2cnc3ccc(F)cc3c2)CC1` [Example 364, (2S,4S)-4-fluoro-1-[2-[4-[(6-fluoro-3-quinolyl)amino]-1-piperidyl]acetyl]pyrrolidine-2-carbonitrile]: the figures for the concentration for half-maximal inhibition (IC50) at DPP4 and at Recombinant human FAP were 9130 nM and 17.2 nM, respectively.

On to `Cc1cccc2c(NC3CCN(CC(=O)N4C[C@@H](F)C[C@H]4C#N)CC3)ccnc12` [Example 343, (2S,4S)-4-fluoro-1-[2-[4-[(8-methyl-4-quinolyl)amino]-1-piperidyl]acetyl]pyrrolidine-2-carbonitrile], for which the IC50 amounted to 17400 nM at DPP4 and 30.7 nM on Recombinant human FAP.

In the case of `CC(=O)Nc1ccc(NC2CCN(CC(=O)N3CCC[C@H]3C#N)CC2)c2cccnc12` [Example 408, N-[5-[[1-[2-oxo-2-[(2S)-2-cyanopyrrolidin-1-yl]ethyl]-4-piperidyl]amino]-8-quinolyl]acetamide], the values for the IC50 on DPP4 and on Recombinant human FAP were 8190 nM and 12.8 nM, respectively.

For the compound `CNC(=O)c1ccc(NC2CCN(CC(=O)N3CCC[C@H]3C#N)CC2)c2cccnc12` [Example 395, N-methyl-5-[[1-[2-oxo-2-[(2S)-2-cyanopyrrolidin-1-yl]ethyl]-4-piperidyl]amino]quinoline-8-carboxamide], the IC50 was 6040 nM at DPP4 and 18.6 nM at Recombinant human FAP.

On to `CN(Cc1ccccc1)C(=O)c1ccc(NC2CCN(CC(=O)N3CCC[C@H]3C#N)CC2)c2cccnc12` [Example 397, N-benzyl-N-methyl-5-[[1-[2-oxo-2-[(2S)-2-cyanopyrrolidin-1-yl]ethyl]-4-piperidyl]amino]quinoline-8-carboxamide], for which the IC50 on DPP4 amounted to 28500 nM; at Recombinant human FAP, 38.9 nM.

Consider `Cc1cc(NC2CCN(CC(=O)N3C[C@@H](F)C[C@H]3C#N)CC2)cc2cccnc12` [Example 374, (2S,4S)-4-fluoro-1-[2-[4-[(8-methyl-6-quinolyl)amino]-1-piperidyl]acetyl]pyrrolidine-2-carbonitrile], for which the IC50 at DPP4 amounted to 5670 nM; at Recombinant human FAP, 31.6 nM.

For the compound `CN(Cc1ccccc1)C(=O)c1cnc2cccc(NC3CCN(CC(=O)N4C[C@@H](F)C[C@H]4C#N)CC3)c2c1` [Example 389, N-benzyl-N-methyl-5-[[1-[2-oxo-2-[(2S,4S)-2-cyano-4-fluoro-pyrrolidin-1-yl]ethyl]-4-piperidyl]amino]quinoline-3-carboxamide], the IC50 at DPP4 amounted to 3890 nM; on Recombinant human FAP it was 67.5 nM.

As for `N#C[C@@H]1CCCN1C(=O)CN1CCC(Oc2ccnc3cc(Cl)ccc23)CC1` [Example 428, (2S)-1-[2-[4-[(7-chloro-4-quinolyl)oxy]-1-piperidyl]acetyl]pyrrolidine-2-carbonitrile], the values for the IC50 on DPP4 and at Recombinant human FAP were 32600 nM and 17.3 nM, respectively.

For `COc1ccc2cc(N(C)C3CCN(CC(=O)N4CCC[C@H]4C#N)CC3)cnc2c1` [Example 324, (2S)-1-[2-[4-[(7-methoxy-3-quinolyl)-methyl-amino]-1-piperidyl]acetyl]pyrrolidine-2-carbonitrile], the IC50 on DPP4 is not below 100000 nM; on Recombinant human FAP it was 25 nM.

As to `CN(C(=O)c1ccc(NC2CCN(CC(=O)N3C[C@@H](F)C[C@H]3C#N)CC2)c2cccnc12)c1ccccc1` [Example 392, N-methyl-5-[[1-[2-oxo-2-[(2S,4S)-2-cyano-4-fluoro-pyrrolidin-1-yl]ethyl]-4-piperidyl]amino]-N-phenyl-quinoline-8-carboxamide], the IC50 at DPP4 was determined as 2070 nM; on Recombinant human FAP, 50.6 nM.

In the case of `Cc1cc(N[C@@H]2CCN(CC(=O)N3CCC[C@H]3C#N)C2)cc2cccnc12` [Example 220, (2S)-1-[2-[(3R)-3-[(8-methyl-6-quinolyl)amino]pyrrolidin-1-yl]acetyl]pyrrolidine-2-carbonitrile], the results for the IC50 on DPP4 and on Recombinant human FAP were 13200 nM and 5.7 nM, respectively.

In the case of `COc1ccc2ncccc2c1N[C@@H]1CCN(CC(=O)N2C[C@@H](F)C[C@H]2C#N)C1` [Example 176, (2S,4S)-4-fluoro-1-[2-[(3R)-3-[(6-methoxy-5-quinolyl)amino]pyrrolidin-1-yl]acetyl]pyrrolidine-2-carbonitrile], the IC50 came out at 1510 nM at DPP4 and 22.2 nM on Recombinant human FAP.

On to `N#C[C@@H]1C[C@H](F)CN1C(=O)CN1CCC(Nc2cc(=O)oc3ccccc23)CC1` [Example 379, (2S,4S)-4-fluoro-1-[2-[4-[(2-oxochromen-4-yl)amino]-1-piperidyl]acetyl]pyrrolidine-2-carbonitrile], for which the results for the IC50 at DPP4 and on Recombinant human FAP were 3380 nM and 47.4 nM, respectively.

For the compound `N#C[C@@H]1C[C@H](F)CN1C(=O)CN1CC[C@@H](Nc2ccnc3c(F)cccc23)C1` [Example 194, (2S,4S)-4-fluoro-1-[2-[(3R)-3-[(8-fluoro-4-quinolyl)amino]pyrrolidin-1-yl]acetyl]pyrrolidine-2-carbonitrile], the IC50 on DPP4 stood at 19600 nM; at Recombinant human FAP, 10.9 nM.

As for `N#C[C@@H]1CCCN1C(=O)CN1CC[C@@H](Nc2ccnc3ccc(F)cc23)C1` [Example 225, (2S)-1-[2-[(3R)-3-[(6-fluoro-4-quinolyl)amino]pyrrolidin-1-yl]acetyl]pyrrolidine-2-carbonitrile], the IC50 on DPP4 was 34200 nM; on Recombinant human FAP it was 7.2 nM.

As for `CN(C(=O)c1ccc(NC2CCN(CC(=O)N3CCC[C@H]3C#N)CC2)c2cccnc12)c1ccccc1` [Example 398, N-methyl-5-[[1-[2-oxo-2-[(2S)-2-cyanopyrrolidin-1-yl]ethyl]-4-piperidyl]amino]-N-phenyl-quinoline-8-carboxamide], the IC50 on DPP4 was determined as 14000 nM; on Recombinant human FAP, 98.6 nM.

As for `Cc1cnc2ccc(N[C@@H]3CCN(CC(=O)N4CCC[C@H]4C#N)C3)cc2c1` [Example 218, (2S)-1-[2-[(3R)-3-[(3-methyl-6-quinolyl)amino]pyrrolidin-1-yl]acetyl]pyrrolidine-2-carbonitrile], the IC50 on DPP4 was found to be 17300 nM; at Recombinant human FAP it was 26.6 nM.

A word on the IC50: it is the concentration that gives 50% inhibition.
